Data reported in patent US10000501B2, “Inhibitors of HIF prolyl hydroxylase” (MERCK SHARP & DOHME CORP., priority 2014, dated 2018).

Target: T1, human HIF-PHD2 (Homo sapiens, UniProt Q9GZT9)
T1 construct: FLAG-tagged full length PHD2 expressed in and purified from baculovirus-infected Sf9 cells; FLAG; made in house; host or cells: baculovirus-infected Sf9 cells
Test: HIF-PHD2 inhibition assay (hydroxylation of HIF-1α peptide, time resolved fluorescence)
Format: biochemical
Conditions: FLAG-tagged full length PHD2; 0.2 μM 2-oxoglutarate, 0.5 μM HIF-1α peptide
Procedure: To each well of a 384-well plate, 1 μL of test compounds in DMSO (final concentration ranging from 0.3 nM to 10 uM) were added into 20 μl of assay buffer (50 mM Tris pH 7.4/0.01% Tween-20/0.1 mg/ml bovine serum albumin/10 μM ferrous sulfate/1 mM sodium ascorbate/20 μg/ml catalase) containing 0.15 μg/ml FLAG-tagged full length PHD2 expressed in and purified from baculovirus-infected Sf9 cells. […] Purif.

T1 sequence (Q9GZT9 whole entry): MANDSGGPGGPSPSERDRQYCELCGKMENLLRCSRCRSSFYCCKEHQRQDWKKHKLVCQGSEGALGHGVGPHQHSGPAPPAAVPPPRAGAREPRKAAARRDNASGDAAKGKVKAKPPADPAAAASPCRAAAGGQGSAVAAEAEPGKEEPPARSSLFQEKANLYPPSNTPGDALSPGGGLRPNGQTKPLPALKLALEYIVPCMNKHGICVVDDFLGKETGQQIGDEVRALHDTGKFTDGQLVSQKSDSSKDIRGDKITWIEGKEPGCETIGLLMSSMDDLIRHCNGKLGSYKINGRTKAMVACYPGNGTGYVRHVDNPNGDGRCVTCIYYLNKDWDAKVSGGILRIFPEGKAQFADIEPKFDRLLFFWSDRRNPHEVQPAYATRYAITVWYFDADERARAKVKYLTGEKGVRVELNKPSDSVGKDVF

| Compound | IC50 [nM] |
| --- | --- |
| COc1ccc(Cn2c3c(c(O)c(C(=O)NCC(=O)O)c2=O)COCC3)cc1 [Example 6, 2-(4-hydroxy-1-(4-methoxybenzyl)-2-oxo-2,5,7,8-tetrahydro-1H-pyrano[4,3-b]pyridine-3-carboxamido)acetic acid] | 15.6 |
| O=C(O)CNC(=O)c1c(O)c2c(n(-c3ccc(OC(F)(F)F)cc3)c1=O)CCOC2 [Example 36, 2-(4-Hydroxy-2-oxo-1-(4-(trifluoromethoxy)phenyl)-2,5,7,8-tetrahydro-1H-pyrano[4,3-b]pyridine-3-carboxamido)acetic acid] | 98.8 |
| O=C(O)CNC(=O)c1c(O)c2c(n(Cc3ccn(-c4ccccc4)n3)c1=O)CCOC2 [Example 32, 2-(4-Hydroxy-2-oxo-1-((1-phenyl-1H-pyrazol-3-yl)methyl)-2,5,7,8-tetrahydro-1H-pyrano[4,3-b]pyridine-3-carboxamido)acetic acid] | 12.1 |
| NC(=O)c1ccc(Cn2c3c(c(O)c(C(=O)NCC(=O)O)c2=O)COCC3)cc1 [Example 34, 2-(1-(4-Carbamoylbenzyl)-4-hydroxy-2-oxo-2,5,7,8-tetrahydro-1H-pyrano[4,3-b]pyridine-3-carboxamido)acetic acid] | 29.3 |
| O=C(O)CNC(=O)c1c(O)c2c(n(Cc3ccc4ccccc4c3)c1=O)CCOC2 [Example 21, 2-(4-hydroxy-1-(naphthalen-2-ylmethyl)-2-oxo-2,5,7,8-tetrahydro-1H-pyrano[4,3-b]pyridine-3-carboxamido)acetic acid] | 37.7 |
| O=C(O)CNC(=O)c1c(O)c2c(n(Cc3ccc(Cl)cc3F)c1=O)COCC2 [Example 47, 2-(1-(4-chloro-2-fluorobenzyl)-4-hydroxy-2-oxo-2,5,6,8-tetrahydro-1H-pyrano[3,4-b]pyridine-3-carboxamido)acetic acid] | 19.3 |
| COc1ccc(Cn2c3c(c(O)c(C(=O)NCC(=O)O)c2=O)CCOC3)cc1 [Example 51, 2-(4-hydroxy-1-(4-methoxybenzyl)-2-oxo-2,5,6,8-tetrahydro-1H-pyrano[3,4-b]pyridine-3-carboxamido)acetic acid] | 30.2 |
| COc1ccc(Cn2c3c(c(O)c(C(=O)NCC(=O)O)c2=O)COCC3)cn1 [Example 30, 2-(4-Hydroxy-1-((6-methoxypyridin-3-yl)methyl)-2-oxo-2,5,7,8-tetrahydro-1H-pyrano[4,3-b]pyridine-3-carboxamido)acetic acid] | 17.4 |
| O=C(O)CNC(=O)c1c(O)c2c(n(Cc3ccc(C(F)(F)F)cc3)c1=O)NCCC2 [Example 78, 2-(4-Hydroxy-2-oxo-1-(4-(trifluoromethyl)benzyl)-1,2,5,6,7,8-hexahydro-1,8-naphthyridine-3-carboxamido)acetic acid] | 70 |
| CN1Cc2c(c(O)c(C(=O)NCC(=O)O)c(=O)n2Cc2ccc(C(F)(F)F)cc2)CC1=O [Example 3, 2-(4-Hydroxy-7-methyl-2,6-dioxo-1-(4-(trifluoromethyl)benzyl)-1,2,5,6,7,8-hexahydro-1,7-naphthyridine-3-carboxamido)acetic acid] | 6.7 |
| N#Cc1ccc(Cn2c3c(c(O)c(C(=O)NCC(=O)O)c2=O)CCOC3)c(F)c1 [Example 44, 2-(1-(4-cyano-2-fluorobenzyl)-4-hydroxy-2-oxo-2,5,6,8-tetrahydro-1H-pyrano[3,4-b]pyridine-3-carboxamido)acetic acid] | 14.4 |
| O=C(O)CNC(=O)c1c(O)c2c([nH]c1=O)CCOC2 [Example 4, 2-(4-Hydroxy-2-oxo-2,5,7,8-tetrahydro-1H-pyrano[4,3-b]pyridine-3-carboxamido)acetic acid] | 41.8 |
| O=C(O)CNC(=O)c1c(O)c2c(n(Cc3ccc(Cl)cc3F)c1=O)CCOC2 [Example 18, 2-(1-(4-chloro-2-fluorobenzyl)-4-hydroxy-2-oxo-2,5,7,8-tetrahydro-1H-pyrano[4,3-b]pyridine-3-carboxamid)acetic acid] | 19.2 |
| CN1CCc2c(c(O)c(C(=O)NCC(=O)O)c(=O)n2Cc2ccc(C(F)(F)F)cc2)C1 [Example 81, 2-(4-Hydroxy-6-methyl-2-oxo-1-(4-(trifluoromethyl)benzyl)-1,2,5,6,7,8-hexahydro-1,6-naphthyridine-3-carboxamido)acetic acid] | 46.1 |
| O=C(O)CNC(=O)c1c(O)c2c(n(Cc3ccc(C(F)(F)F)cc3)c1=O)C1CCC2C1 (centres unmarked) [Example 83, 2-(-4-hydroxy-2-oxo-1-(4-(trifluoromethyl)benzyl)-1,2,5,6,7,8-hexahydro-5,8-methanoquinoline-3-carboxamide)acetic acid] | 46 |
| CC(C)Oc1ccc(Cn2c3c(c(O)c(C(=O)NCC(=O)O)c2=O)COCC3)cc1 [Example 13, 2-(4-hydroxy-1-(4-isopropoxybenzyl)-2-oxo-2,5,7,8-tetrahydro-1H-pyrano[4,3-b]pyridine-3-carboxamido)acetic acid] | 20.5 |

The remaining compounds from weak to strong by IC50, led by results:

| IC50 [nM] | Compound |
| --- | --- |
| 78.5 | CCn1c2c(c(O)c(C(=O)NCC(=O)O)c1=O)COCC2 [Example 19, 2-(1-ethyl-4-hydroxy-2-oxo-2,5,7,8-tetrahydro-1H-pyrano[4,3-b]pyridine-3-carboxamido)acetic acid] |
| 67.4 | CC(C)(O)c1ccc(Cn2c3c(c(O)c(C(=O)NCC(=O)O)c2=O)CCOC3)cc1 [Example 63, 2-(4-Hydroxy-1-(4-(2-hydroxypropan-2-yl)benzyl)-2-oxo-2,5,6,8-tetrahydro-1H-pyrano[3,4-b]pyridine-3-carboxamido)acetic acid] |
| 61 | O=C(O)CNC(=O)c1c(O)c2c(n(Cc3nc(-c4ccccc4)cs3)c1=O)C1CCC2C1 (centres unmarked) [Example 85, 2-(-4-hydroxy-2-oxo-1-((4-phenylthiaozl-2-yl)methyl)-1,2,5,6,7,8-hexahydro-5,8-methanoquinoline-3-carboxamido)acetic acid] |
| 55.1 | Cn1ccc(Cn2c3c(c(O)c(C(=O)NCC(=O)O)c2=O)CCOC3)n1 [Example 50, 2-(4-hydroxy-1-((1-methyl-1H-pyrazol-3-yl)methyl)-2-oxo-2,5,6,8-tetrahydro-1H-pyrano[3,4-b]pyridine-3-carboxamido)acetic acid] |
| 50.2 | O=C(O)CNC(=O)c1c(O)c2c(n(Cc3ccc(Cl)cc3)c1=O)COCC2 [Example 37, 2-(1-(4-Chlorobenzyl)-4-hydroxy-2-oxo-2,5,6,8-tetrahydro-1H-pyrano[3,4-b]pyridine-3-carboxamido)acetic acid] |
| 29.1 | CC(C)Oc1ccc(Cn2c3c(c(O)c(C(=O)NCC(=O)O)c2=O)CCOC3)cc1 [Example 56, 2-(4-hydroxy-1-(4-isopropoxybenzyl)-2-oxo-2,5,6,8-tetrahydro-1H-pyrano[3,4-b]pyridine-3-carboxamido)acetic acid] |
| 24.1 | O=C(O)CNC(=O)c1c(O)c2c(n(Cc3ccc(OC(F)(F)F)cc3)c1=O)COCC2 [Example 52, 2-(4-hydroxy-2-oxo-1-(4-(trifluoromethoxy)benzyl)-2,5,6,8-tetrahydro-1H-pyrano[3,4-b]pyridine-3-carboxamido)acetic acid] |
| 21.3 | CNC(=O)c1ccc(Cn2c3c(c(O)c(C(=O)NCC(=O)O)c2=O)CCOC3)cc1 [Example 55, 2-(4-hydroxy-1-(4-(methylcarbamoyl)benzyl)-2-oxo-2,5,6,8-tetrahydro-1H-pyrano[3,4-b]pyridine-3-carboxamido)acetic acid] |
| 19.9 | O=C(O)CNC(=O)c1c(O)c2c(n(Cc3ccc(C(F)(F)F)nc3)c1=O)COCC2 [Example 42, 2-(4-hydroxy-2-oxo-1-((6-(trifluoromethyl)pyridin-3-yl)methyl)-2,5,6,8-tetrahydro-1H-pyrano[3,4-b]pyridine-3-carboxamido)acetic acid] |
| 19 | O=C(O)CNC(=O)c1c(O)c2c(n(Cc3cnc(-c4ccccc4)s3)c1=O)C1CCC2C1 (centres unmarked) [Example 84, 2-(-4-hydroxy-2-oxo-1-((2-phenylthiazol-5-yl)methyl)-1,2,5,6,7,8-hexahydro-5,8-methanoquinoline-3-carboxamido)acetic acid] |
| 16.3 | N#Cc1ccc(-c2ccc(Cn3c4c(c(O)c(C(=O)NCC(=O)O)c3=O)CCOC4)cc2)cc1 [Example 69, 2-(1-((4′-cyano-[1,1′-biphenyl]-4-yl)methyl)-4-hydroxy-2-oxo-2,5,6,8-tetrahydro-1H-pyrano[3,4-b]pyridine-3-carboxamido)acetic acid] |
| 14.5 | Cc1cc(Cn2c3c(c(O)c(C(=O)NCC(=O)O)c2=O)COCC3)ccc1C#N [Example 28, 2-(1-(4-Cyano-3-methylbenzyl)-4-hydroxy-2-oxo-2,5,7,8-tetrahydro-1H-pyrano[4,3-b]pyridine-3-carboxamido)acetic acid] |
| 10.4 | CN1Cc2c(c(O)c(C(=O)NCC(=O)O)c(=O)n2Cc2ccc(C#N)cc2F)CC1=O [Example 70, 2-(1-(4-Cyano-2-fluorobenzyl)-4-hydroxy-7-methyl-2,6-dioxo-1,2,5,6,7,8-hexahydro-1,7-naphthyridine-3-carboxamido)acetic acid] |
| 10.3 | O=C(O)CNC(=O)c1c(O)c2c(n(Cc3ccc(F)cc3F)c1=O)CCOC2 [Example 16, 2-(1-(2,4-difluorobenzyl)-4-hydroxy-2-oxo-2,5,7,8-tetrahydro-1H-pyrano[4,3-b]pyridine-3-carboxamido)acetic acid] |
| 8.9 | O=C(O)CNC(=O)c1c(O)c2c(n(Cc3nc4ccccc4s3)c1=O)COCC2 [Example 48, 2-(1-(benzo[d]thiazol-2-ylmethyl)-4-hydroxy-2-oxo-2,5,6,8-tetrahydro-1H-pyrano[3,4-b]pyridine-3-carboxamido)acetic acid] |
| 7.8 | NC(=O)c1ccc(-c2ccc(Cn3c4c(c(O)c(C(=O)NCC(=O)O)c3=O)CCOC4)cc2)cc1 [Example 68, 2-(1-((4′-carbamoyl-[1,1′-biphenyl]-4-yl)methyl)-4-hydroxy-2-oxo-2,5,6,8-tetrahydro-1H-pyrano[3,4-b]pyridine-3-carboxamido)acetic acid] |
